One test relates to BALB/c strain mice. Nature of the test: Animal test: body weight, food intake and diarrhea index of mice given 5-FU drug. The class given is in vivo. As to the method: (§1) A number of 5-week-old male BALB/c strain mice are selected and randomly divided into groups. The experimental period is 18 days. The temperature of rearing environment of the mice in each group is maintained at 22±2° C., with a day and night cycle of 12 hours each.
Body weight and feed intake of the mice in each group are measured and recorded every day during the testing period. The results are shown in FIG. 2 and FIG. 3; after administration of 5-FU drug, the feces of the mice in each group are collected, and the diarrhea index of the mice in each group is evaluated, the results are shown in FIG. 4.

Test [1] concerns large intestine and small intestine tissues. Nature of the test: Length of large intestine and hematoxylin-eosin staining of small and large intestine tissues of the mice. The class given is in vivo. Conditions: same regimen. As to the method:
A number of 5-week-old male BALB/c strain mice are selected and randomly divided into groups. The experimental period is 18 days. The temperature of rearing environment of the mice in each group is maintained at 22±2° C., with a day and night cycle of 12 hours each. […] After the test period in embodiment 4, large intestine and small intestine tissues of the mice in each group are collected, and a length of the large intestine of the mice in each group is measured respectively, the results are shown in FIG. 6; the large intestine and small intestine of the mice in each group are sliced respectively, and stained with hematoxylin-eosin, the results are shown in FIGS. 7A and 7B.

Test [2] relates to chemotherapy-induced diarrhea. Conditions: literature, cited from earlier work.
The next test concerns intestinal microflora. As to the kind of experiment: Microflora analysis of feces of the mice (OTU clustering, heatmap, PLS-DA, metagenomeSeq). It is filed as in vivo. As to the method: as §1
After the test in embodiment 4, the feces of the mice in each group are collected, and sequence analysis of the feces of the mice in each group is outsourced, and then similarity (greater than 97%) OTUs (Operational Taxonomic Units) clustering and species classification analysis are performed. According to the species annotation results, the top 10 species with relative abundance in the mice in each group in the phylum are selected. Wherein fecal sequencing analysis and microflora analysis are known to a person having ordinary skill in the art to which the invention pertains; generally speaking, the fecal samples are firstly performed with DNA extraction and purification, followed by PCR amplification, purification and sequencing, the sequencing results will go through steps of paired sequence splicing (Raw Tags) and filtering to obtain identifiable valid data, and then OTUs clustering and species classification analysis are performed.
According to the species annotation information and abundance information of all the groups in each taxonomic rank, the top 35 genera in abundance are selected, and the group abundance is the average abundance of all the samples in the group. Clustering is performed at the species level to draw a species heatmap of the fecal samples in each group, the results are shown in FIG. 9.
Partial least square discriminant analysis (PLS-DA) is used to analyze the β-diversity of microbial flora in the feces of the mice in each group to determine whether there is a difference in bacterial flora among the microflora of the mice in each group. The microflora data of the mice in each group are analyzed by metagenomeSeq to evaluate specific differences between the microflora of the mice in each group, and the results are shown in FIG. 11A to FIG. 11D.

The next test deals with IL-6. Nature of the test: Concentration of IL-6 in the serum of the mice (commercial kit). Conditions: same regimen, after the test period; FIG. 5. The class given is in vivo. As to the method: A number of 5-week-old male BALB/c strain mice are selected and randomly divided into groups. The experimental period is 18 days. The temperature of rearing environment of the mice in each group is maintained at 22±2° C., with a day and night cycle of 12 hours each. […] After the test period in embodiment 4, the serum of the mice in each group is collected respectively, and the concentration of IL-6 in the serum of the mice in each group is analyzed with a commercial kit.

With `NC(=O)CC[C@H](N)C(=O)O` [glutamine, L-glutamine], the body weight entry with BALB/c strain mice (5-FU 50 mg/kg/day i.p. days 11-13, BC198 5×10^8/day and/or glutamine 1 g/kg/day oral daily, 18 days, FIG. 2) was “able to maintain their body weight”. In the test on BALB/c strain mice (same regimen, FIG. 3, group 5 statement for days 14-15), the food intake entry was “able to maintain their body weight and food intake”. In the test with BALB/c strain mice (same regimen, FIG. 4, compared with 5-FU only (group 2), days 14-15), the diarrhea index entry was “able to alleviate the diarrhea caused by 5-FU drug”. Besides, the “length of large intestine” value in test [1] (after the test period, FIG. 6) is “maintain their large intestine lengths”. In addition, the “structure of small and large intestine tissues (hematoxylin-eosin)” value in test [1] (FIGS. 7A and 7B, compared with 5-FU only (group 2)) was “able to mitigate lesion to the structures of the small and large intestines induced by 5-FU drug”. Besides, in test [2], the doxifluridine-induced diarrhea entry is “incapable of inhibiting”; the “severity of 5-FU/calciumfolinate-induced stomatitis, nausea and diarrhea” value is listed as “incapable of mitigating severity”. Also, in test [2] (patients), the “duration of chemotherapy-induced diarrhea” value is on record as “capable of reducing the duration” and the “severity of chemotherapy-induced diarrhea” value is on record as “incapable of improving its severity”. Moreover, the “relative abundance of Proteobacteria in feces” value in the test on intestinal microflora (FIG. 8, compared with 5-FU only (group 2)) is given as “can be reduced”. Moreover, the “abundances of the microflora associated with diarrhea and enteritis (Escherichia shigella, Odoribacter)” value in the test with intestinal microflora (FIG. 9 heatmap, compared with group 2) is reported as “lower than that of the mice in group 2”. The “microflora distribution (PLS-DA, β-diversity)” value in the test on intestinal microflora (FIG. 10, relative to group 2) was “close to that of the mice in group 2”. In addition, the “relative abundance of UBA1819” value in the test on intestinal microflora (metagenomeSeq, FIG. 11A, compared with group 2) is listed as “can not be significantly reduced”. Further, in the test on intestinal microflora (metagenomeSeq, FIG. 11B, compared with group 2), the “relative abundance of Staphylococcus” value is “can not be significantly reduced”. Also, in the test with intestinal microflora (metagenomeSeq, FIG. 11C, compared with group 2), the “relative abundance of Escherichia shigella” value was “can be significantly reduced”. The “relative abundance of Muribaculum” value with intestinal microflora (metagenomeSeq, FIG. 11D, compared with group 2 (5-FU only)) is on record as “significantly reduced”. In the test with IL-6, the “concentration of IL-6 in the serum” value was “significantly lower than that of the mice in group 2”.
